Reference: US4806660A, “Aurone oxypropanolamines” (Pennwalt Corporation, priority 1988, dated 1989)
Where a name gives a salt, the structure may show the parent alone.

Tested on: LTC4-induced contraction of guinea pig ileum
Experiment: Test for Inhibition of LTC4-Induced Guinea Pig Ilial Contractions
Conditions: Cavia porcellus, LTC4 6 nanomolar, isolated guinea pig ilial strips, four replicate tissues, read-out: Percent Inhibition of Contraction at the given Concentration of Test Compound; for inhibition at 1 µM: 1 μMolar; for inhibition at 5 µM: 5 μMolar; for inhibition at 10 µM: 10 μMolar; for inhibition at 50 µM: 50 μMolar
Description: Test for Inhibition of LTC4 -Induced Guinea Pig Ilial Contractions The evaluation of potential anti-allergic compounds for antagonism of the in vitro effects of LTC4 is conducted according to the following procedure. Guinea pig ilial strips are obtained from recently killed animals and hung in isolated tissue baths comprising a balanced solution of salts such as Krebs' solution. After allowing for one hour equilibration of the tissue in the bath, the gram tension (G.T.) on one tissue is arbitrarily set at one. LTC4 (6 nanomolar concentration) is then added to the tissue bath. This induces a long, sustained contraction of the tissue that is measured on the strip chart recorder (the G.T. increases to about 2). After the LTC4 -induced contraction has plateaued and remains stable, increasing amounts of the test compound are added to the bath. If the compound is effective, a decrease in the G.T. (ΔG.T.) from the LTC4 -induced value is seen (e.g., from 2 to 1.5). The percent inhibition at each concentration is calculated according to the formula: [formula] Four replicate tissues are run.

Compound	inhibition at 1 µM [%]	inhibition at 5 µM [%]	inhibition at 10 µM [%]	inhibition at 50 µM [%]
CCCNCC(O)COc1ccc2c(c1)O/C(=C\c1ccccc1)C2=O (stereo not drawn) [Example 1, 6-[2-Hydroxy-3-(propylamino)propoxy]aurone Hydrochloride]	16	44	66	135
CC(C)NCC(O)COc1ccc2c(c1)O/C(=C\c1ccccc1)C2=O (stereo not drawn) [Example 2, 6-[2-Hydroxy-3-(isopropylamino)propoxy]aurone Hydrochloride]	23	48	62	154
O=C1/C(=C/c2ccccc2)Oc2cc(OCC(O)CNC3CC3)ccc21 (stereo not drawn) [Example 3, 6-[3-(Cyclopropylamino)-2-hydroxypropoxy]aurone Hydrochloride]	25	48	65	144
